Data reported in patent publication US20250205189A1, “DIETARY BUTYRATE FOR TREATING OR PREVENTING AN ALLERGIC DISORDER” (SOCIETE DES PRODUITS NESTLE S.A., priority 2018, published 2025).

Tests used:
female BALB/c mice = test: Cumulative clinical score after oral OVA challenge in mice with pre-existing milk (BLG) allergy; assay type: in vivo; conditions: 600 μg butyrate per mL infant formula ad libitum; 12 oral OVA challenges; compared to Allergic group 1; FIG. 3
Source text: An allergy to milk was induced in female BALB/c mice aged eight weeks by sensitization via epicutaneous application of the milk protein β-lactoglobulin (BLG) (“Allergic group”). At this stage all three “Allergic groups” ([…], […] and Allergic group 3) were subjected to the same sensitization via epicutaneous application of the milk protein β-lactoglobulin (BLG) treatment. The non-allergic negative control group received phosphate buffered saline (PBS) only (“Control group”). Three patches were applied in total, each separated by a week without patch in between. Six days following the final skin patch, mice were orally challenged with BLG following a conventional procedure known to those skilled in the art. Serum was processed for ELISA and BLG-specific Immunoglobulin E (IgE) and BLG-specific Immunoglobulin G1 (IgG1) were determined (FIGS. 1 and 2 respectively).
Following the induction of milk allergy, “Control group” and “Allergic group 1” received infant formula for nutritional management of cow's milk allergy (the extensively hydrolyzed infant formula available commercially under the Trademark Althéra® was used in this example) reconstituted in the drinking water for a three-week period. […]

[1] = test system: OVA-specific IgE, OVA-specific IgG1; test: Serum ELISA of OVA-specific IgE and IgG1 after oral OVA challenge; assay type: in vivo, mice; conditions: 600 μg butyrate per mL infant formula, compared across the three Allergic groups
[2] = test system: mast cell protease-1 (MCPT-1); test: Serum ELISA of mast cell protease-1 after oral OVA challenge; assay type: in vivo, mice; conditions: 600 μg butyrate per mL infant formula, FIG. 6
GATA-3 = conditions: cited from earlier work

CCCC(=O)[O-].[Na+] [sodium butyrate]
Allergic symptoms (cumulative clinical score) (female BALB/c mice): reduction of allergic symptoms
OVA-specific IgE level ([1]; FIG. 4): similar
OVA-specific IgG1 level ([1]; FIG. 5): similar
Mast cell protease-1 (MCPT-1) [2]: reduction in mast cell protease-1
GATA-3 or FoxP3 expression (GATA-3; 0.1 mM, CD4+ T cells under Th2 polarizing conditions (Furusawa 2013)): insufficient to influence GATA-3 or FoxP3 expression
Gata3 expression (GATA-3; 1 mM in vitro, Th2 polarized CD4+ T cells (Kespohl 2017)): sufficient to ameliorate Gata3 expression
